1 compound from patent publication US20240299394A1, “TARGETED TREATMENT FOR SKIN FRAGILITY DISEASES” (University of Washington, priority 2023, published 2024) can be followed below.

Format in all cases: cell-based, human
One experiment deals with NHEKs. In words: Immunoblot of cadherins and plakoglobin in NHEK lysates. To be noted: 24 hours in E-medium, vs DMSO. As for the experimental part: NHEKs were seeded at a density of 1×10^6 cells per well of 6-well cell culture dishes in M154. Upon reaching confluence, M154 was replaced with E-medium containing vehicle control (DMSO) or inhibitors at the following concentrations: Dabrafenib (1 μM), vemurafenib (10 μM), trametinib (1 μM). After 24 hours, whole-cell lysates were generated by washing cells once in phosphate-buffered saline (PBS) followed by lysis in urea sample buffer [8 M Urea, 60 mM Tris, 1% SDS, 10% glycerol, 5% β-mercaptoethanol, 0.0005% pyronin-Y, pH 6.8] for 10 min. Lysates were homogenized using a microtip probe sonicator (Fisher Scientific).
Whole-cell lysates were loaded onto NuPAGE 12% Bis-Tris Gels (Thermo-Fisher Cat. #NP0343BOX) and separated by electrophoresis using NuPAGE MES SDS Running Buffer (Thermo-Fisher Cat. #NP0002). Proteins were transferred onto Immobilon-FL membrane (Millipore of Burlington, MA, Cat. #IPFL85R) in transfer buffer (25 mM Tris, 192 mM glycine, 20% (v/v) methanol) at 50 volts (V) for 60 minutes. Membranes were blocked in Intercept tris-buffered saline (TBS) blocking buffer (LI-COR) for 60 minutes at room temperature. Membranes were probed overnight at 4° C. with the primary antibodies diluted in Intercept TBS blocking buffer (LI-COR). […]
(In general: Immunoblotting shows a protein as a band on a membrane.)

The subject of the next experiment is HET cells (THEKs). In words: Immunoblot of KRT10 and KRT14 in keratinocyte lysates. Particulars: 1 μM Dab, 1 μM Tram, 10 μM U0126, 10 μM PD184352, 20 μM PD98059 (FIG. 10D). As to the method:
THEKs were seeded at a density of 1×10^6 cells per well of 6-well cell culture dishes in KSFM. Upon reaching confluence, KSFM was replaced with E-medium containing vehicle control (DMSO) or inhibitors at the following concentrations: Dabrafenib (1 μM), trametinib (1 μM), U0126 (10 μM), PD184352 (10 μM), or PD98059 (20 μM). After 72 hours, whole-cell lysates were generated by washing cells once in PBS followed by lysis in urea sample buffer [8 M Urea, 60 mM Tris, 1% sodium dodecyl sulfate (SDS), 10% glycerol, 5% β-mercaptoethanol, 0.0005% pyronin-Y, pH 6.8] for 10 min. Lysates were homogenized using a microtip probe sonicator (Fisher Scientific).
Whole-cell lysates were loaded onto Any kD Mini-PROTEAN TGX Precast Protein Gels (Bio-Rad) and separated by electrophoresis. Proteins were transferred onto nitrocellulose membranes (Bio-Rad) in ice-cold Towbin transfer buffer (25 mM Tris, 192 mM glycine, 20% (v/v) methanol) at 100 volts (V) for 90 minutes at 4° C. Membranes were blocked in Intercept tris-buffered saline (TBS) blocking buffer (LI-COR) for 45 min at room temperature. Membranes were probed overnight at 4° C. with the primary antibodies diluted at 1:1000 in Intercept TBS blocking buffer (LI-COR). […]

In another experiment the test system is NHEK monolayers. In words: Monolayer mechanical dissociation assay, SERCA2 inhibition with thapsigargin. To be noted: with 1 μM TG, 24 hours; 1 μM Tram, 10 μM U0126, 20 μM PD98059, 1 μM dabrafenib. As to the method:
Dispase-based mechanical dissociation assays were carried out as described (Simpson C L, et al. Am J Pathol. 2010; 177(6): p. 2921-37). Keratinocytes were plated at a density of 1×10^6 cells per well of 6-well cell culture dishes. Upon reaching confluence, the calcium concentration of the medium was adjusted to 1.3 mM. Vehicle control (DMSO) or chemical inhibitors were added at the following concentrations: […] After 24 to 72 hours, monolayers were washed with PBS and then incubated with 500 μL dispase (5 U/ml) in Hank's balanced salt solution (Stemcell Technologies of Vancouver, CA, Cat. #07913) for 30 minutes at 37° C. Next, 4.5 ml PBS was added to the wells and all liquid plus released monolayers were transferred into 15 mL conical tubes, which were placed together in a rack and inverted 5-10 times to induce mechanical stress. Monolayer fragments were transferred back into 6-well cell culture plates and imaged with a 12-megapixel digital camera. Fragments were counted in Fiji.

Experiment [1] has as its system organotypic epidermis of NHEKs. Put plainly: Organotypic epidermis treated with B-RAF inhibitors (H&E, immunostaining). To be noted: Dab or Vem alone, 48 hours. As for the experimental part: Inhibitors were used at the following concentrations: Dabrafenib (1 μM), vemurafenib (10 μM), trametinib (1 μM).
Paraffin-embedded formalin-fixed tissue cross-sections on glass slides were incubated at 65° C. for 2 hours. Sections were prepared for staining by immersion in 3 baths of xylenes (Fisher) for 5 minutes each, followed by 3 baths of 95% ethanol for 5 minutes each, then 70% ethanol for 5 minutes, and finally 3 baths of PBS for 5 minutes each.

SMILES strings stand for the structures.

`CC(C)(C)c1nc(-c2cccc(NS(=O)(=O)c3c(F)cccc3F)c2F)c(-c2ccnc(N)n2)s1` [dabrafenib]: in the experiment with NHEKs, the “protein levels of classical cadherins, desmosomal cadherins (DSG1, DSG2, DSG3) and plakoglobin” value is listed as “did not appreciably alter”. Besides, in the experiment on HET cells (THEKs), the KRT10 by immunoblot entry is “failed to rescue KRT10 expression”. The “integrity of epithelial sheets despite SERCA2 inhibition” value in the experiment with NHEK monolayers is “did not promote intercellular adhesion, but rather exacerbated the effect of TG”. Besides, the “localization of plakoglobin to cell-cell junctions” value in experiment [1] was “reduced localization of plakoglobin to cell-cell junctions”.
